Results on two compounds are retold here after patent publication US12528819B2 (priority 2016, dated 2026).

Experiment [1] deals with aged-impaired (AI) rats. As to the kind of experiment: Morris water maze behavioral task, ICV infusion. Format: in vivo, rat. Particulars: 100 μg ICV. On the procedure:
The effects of 6,6 dimethyl-3-(3-hydroxypropyl)thio-1-(thiazol-2-yl)-6,7-dihydro-2-benzothiophen-4(5H)-one on the in vivo spatial memory retention of aged-impaired (AI) rats were assessed in a Morris water maze behavioral task. A water maze is a pool surrounded with a novel set of patterns relative to the maze.
Cognitively impaired aged rats were implanted unilaterally with a cannula into the lateral ventricle. Stereotaxic coordinates were 1.0 mm posterior to bregma, 1.5 mm lateral to midline, and 3.5 mm ventral to the skull surface. After about a week of recovery, the rats were pre-trained in a water maze for 2 days (6 trials per day) to locate a submerged escape platform hidden underneath the surface of the pool, in which the escape platform location varied from day to day. No intracerebroventricular (ICV) infusion was given during pre-training.
After pre-training, rats received ICV infusion of either 100 μg 6,6 dimethyl-3-(3-hydroxypropyl)thio-1-(thiazol-2-yl)-6,7-dihydro-2-benzothiophen-4(5H)-one (n=6) in 5 μl DMSO or vehicle DMSO (n=5) 40 min prior to water maze training and testing. Training consisted of 8 trials per day for 2 days where the hidden escape platform remained in the same location. Rats were given 60 seconds to locate the platform with a 60 seconds inter-trial interval. The rats were given a probe test (120 seconds) 24 hr. after the end of training where the escape platform was removed. During the training, there were 4 blocks, where each block had 4 training trials.
During a test trial 24 hr. after training, the escape platform was removed. The search/swim pattern of the rats was used to measure whether the rats remember where the escape platform was located during pre-trial training in order to test for the long-term memory of the rats. In this trial, “target annulus” is a designated area 1.5 times the size of the escape platform around the area where the platform was located during pre-trial training. “Opposite annulus” is a control area of the same size as the size of the target annulus, which is located opposite to the target annulus in the pool. If the rats had good long term memory, they would tend to search in the area surrounding the location where the platform was during the pre-trial training (i.e., the “target” annulus; and not the “opposite” annulus). “Time in annulus” is the amount of time in seconds that the rat spent in the target or opposite annulus area. “Number (#) of crossings” in annulus is the number of times the rat swam across the target or opposite annulus area.

Experiment [2] concerns MAM-treated rats. Particulars: cited from earlier work.
The mark [3] stands for this setting: probe test 24 hr. after training.

`CC1(C)CC(=O)c2c(SCCCO)sc(-c3nccs3)c2C1` [6,6 dimethyl-3-(3-hydroxypropyl)thio-1-(thiazol-2-yl)-6,7-dihydro-2-benzothiophen-4(5H)-one]: the “time to find the escape platform” value in experiment [1] (beginning of training (block 1)) is “about 24 seconds”. Also, the “time to find the escape platform” value in experiment [1] (end of training (block 4)) is “about 9.6 seconds”. For the same compound, in experiment [1] (setting [3]), the “number of crossings of target annulus compared to opposite annulus” value is reported as “more often” and the “time in target annulus compared to opposite annulus” value was “significantly more time in the target annulus”.

On to `C#Cc1ccc2c(c1)C(c1ccccc1F)=N[C@H](C)c1c(C(=O)OCC)ncn1-2` [SH-053-2′F—R—CH3], for which the “number of spontaneously active DA neurons in the ventral tegmental area (VTA)” value in experiment [2] (MAM rats, systemic or infused into ventral HPC, to levels of saline-treated rats) is on record as “reduces”. Moreover, in experiment [2] (MAM-treated rats), the “increased locomotor response to amphetamine” value is “reduced”. For the same compound, the “cortical-evoked responses of HPC neurons” value in experiment [2] (saline-treated and MAM-treated animals) is listed as “diminished”.
